Publication PMC9309146 (Advances in Therapy, 2022)
Where two headings read alike, the source gives them in different places.

Tests used:
[1] = legacy popPK analysis ref 20; cited from earlier work
[2] = Exposure-safety analysis; assay type: in vivo, human; details: logistic regression
[3] = Population PK; assay type: in vivo, human
[4] = MURANO popPK evaluation ref 24; cited from earlier work

## CC1(C)CCC(CN2CCN(c3ccc(C(=O)NS(=O)(=O)c4ccc(NCC5CCOCC5)c([N+](=O)[O-])c4)c(Oc4cnc5[nH]ccc5c4)c3)CC2)=C(c2ccc(Cl)cc2)C1 [venetoclax]
[1]
  rituximab co-administration effect: increase in CL/F: 22%
[2]
  p value, association of CmeanSS,nominal with probability of SAEs: 0.214
  p value, association of CmeanSS,nominal with probability of grade ≥ 3 infections: 0.149
[3]; current analysis
  rituximab co-administration effect: increase in CL/F: 7%
[3]; dose decrease from 400 to 200 mg
  increase in F1: 11.0%
[3]; dose increase from 400 to 800 mg
  decrease in F1: 9.9%
[3]; fasting state relative to low-fat state
  decrease in F1: 66.2%
[3]; females than males
  V2/F lower: 29.7%
[3]; forward addition covariate testing
  effect of obinutuzumab co-administration on CL/F and F1: no effect
[3]; high-fat meal relative to low-fat
  increase in F1: 44.3%
[3]; human, in vivo
  relationship between CL/F and body weight, age, gender, mild or moderate hepatic or renal impairment, CrCL, bilirubin, ALT, AST, albumin, P-glycoprotein or weak CYP3A inhibitors: no relationship was observed
[3]; meal-fed state without specification of fat content
  increase in F1: 28.9%
[3]; moderate-fat meal relative to low-fat
  increase in F1: 40.4%
[3]; patients compared with healthy individuals
  V2/F higher: 73.3%
[3]; with OATP1B3 hepatic uptake transporter inhibitors
  decrease in CL/F: 13.6%
[3]; with moderate CYP3A inhibitors
  decrease in CL/F: 13.9%
[3]; with strong CYP3A inhibitors
  decrease in CL/F: 82.2%
[4]
  rituximab co-administration effect: decrease in CL/F: 7%
